Where a name gives a salt, the structure may show the parent alone.
Columns and labels:
[1] = test system: IL-6; assay: THP-1 AlphaLISA IL-6 cytokine assay; assay type: cell-based; conditions: Homo sapiens
Protocol: (§1) Biological Example 1—THP-1 AlphaLISA IL-1β and IL-6 Cytokine Assay Measuring Inhibitory Effects on IL-1, and IL-6 Cytokine Output from THP-1s The cytokine inhibition profiles of compounds of formula (I) were determined in a differentiated THP-1 cell assay. All assays were performed in RPMI-1640 growth medium (Gibco), supplemented with 10% fetal bovine serum (FBS; Gibco), 1% penicillin-streptomycin and 1% sodium pyruvate unless specified otherwise. The IL-1β and IL-6 cytokine inhibition assays were each run in a background of differentiated THP-1 cells as described below. All reagents described were from Sigma-Aldrich unless specified otherwise. Compounds were prepared as 10 mM DMSO stocks. THP-1 cells were expanded as a suspension up to 80% confluence in appropriate growth medium. Cells were harvested, suspended, and treated with an appropriate concentration of phorbol 12-myristate 13-acetate (PMA) over a 72 hr period (37° C./5% CO2). Following 72 hrs of THP-1 cell incubation, cellular medium was removed and replaced with fresh growth media containing 1% of FBS. Working concentrations of compounds were prepared separately in 10% FBS treated growth medium and pre-incubated with the cells for 30 minutes (37° C./5% CO2). Following the 30 minute compound pre-incubation, THP-1s were treated with an appropriate concentration of LPS and the THP-1s were subsequently incubated for a 24 hr period (37° C./5% CO2). An appropriate final concentration of Nigericin was then dispensed into the THP-1 plates and incubated for 1 hour (37° C./5% CO2) before THP-1 supernatants were harvested and collected in separate polypropylene 96-well holding plates. Reagents from each of the IL-1β and IL-6 commercial kits (Perkin Elmer) were prepared and run according to the manufacturer's instructions. Subsequently, fluorescence signal detection in a microplate reader was measured (EnVision® Multilabel Reader, Perkin Elmer). Percentage inhibition was calculated per cytokine by normalizing the sample data to the high and low controls used within each plate (+/−LPS respectively). Percentage inhibition was then plotted against compound concentration and the 50% inhibitory concentration (IC50) was determined from the resultant concentration-response curve.

[2] = test system: IL-1β; assay: THP-1 AlphaLISA IL-1β cytokine assay; assay type: cell-based; conditions: for IC50: Homo sapiens, differentiated THP-1 cells, Table 2, compounds of formula (II)
Protocol: as §1

[3] = test system: hepatocytes; assay: Hepatocyte stability assay, mouse; assay type: in vitro ADME; conditions: 10 μM compound, Table 6
Text: (§2) Biological Example 3—Hepatocyte Stability Assay
(§3) Defrosted cryo-preserved hepatocytes (viability >70%) are used to determine the metabolic stability of a compound via calculation of intrinsic clearance (CIint; a measure of the removal of a compound from the liver in the absence of blood flow and cell binding). Clearance data are particularly important for […] as they can be used in combination with in vivo data to predict the half-life and oral bioavailability of a drug.
(§4) The metabolic stability in hepatocytes assay involves a time-dependent reaction using both positive and negative controls. The cells must be pre-incubated at 37° C. then spiked with test compound (and positive control); samples taken at pre-determined time intervals are analysed to monitor the change in concentration of the initial drug compound over 60 minutes. A buffer incubation reaction (with no hepatocytes present) acts as a negative control and two cocktail solutions, containing compounds with known high and low clearance values (verapamil/7-hydroxycoumarin and propranolol/diltiazem), act as positive controls. • 1. The assay is run with a cell concentration of 0.5×10^6 cells/mL in Leibovitz buffer. • 2. All compounds and controls are run in duplicate. • 3. Compound concentration is 10 μM. • 4. All compounds and controls are incubated with both cells and buffer to show turnover is due to hepatic metabolism. • 5. All wells on the incubation plate will have 326.7 μL of either cells or buffer added. • 6. Prior to assay, cell and buffer-only incubation plates are preincubated for 10 mins at 37° C. • 7. The assay is initiated by adding compounds, 3.3 μL of 1 mM in 10% DMSO-90% Buffer; final DMSO concentration is 0.1%. • 8. Samples are taken at regular timepoints (0, 5, 10, 20, 40, 60 min) until 60 mins. • 9. Sample volume is 40 μL and it is added to 160 μL of crash solvent (acetonitrile with internal standard) and stored on ice. • 10. At the end of the assay, the crash plates are centrifuged at 3500 rpm for 20 mins at 4° C. • 11. 80 μL of clear supernatant is removed and mixed with 80 μL of deionised water before being analysed by LC-MS/MS.
(§5) Raw LC-MS/MS data are exported to, and analysed in, Microsoft Excel for determination of intrinsic clearance. The percentage remaining of a compound is monitored using the peak area of the initial concentration as 100%. Intrinsic clearance and half-life values are calculated using a graph of the natural log of percentage remaining versus the time of reaction in minutes. Half-life (min) and intrinsic clearance (CIint in μL min^−1 10^−6 cells) values are calculated using the gradient of the graph (the elimination rate constant, k) and Equations 1 and 2.

[4] = test system: hepatocytes; assay: Hepatocyte stability assay, human; assay type: in vitro ADME; conditions: 10 μM compound, Table 6
Text: as §2, §3, §4, §5

[5] = test system: NRF2; assay: NRF2 activation assay (DiscoverX PathHunter NRF2 translocation kit, U2OS cells); assay type: cell-based
Protocol: Biological Example 2—NRF2 Activation Assay Measuring Compound Activation Effects on the Anti-Inflammatory Transcription Factor NRF2 in DiscoverX PathHunter NRF2 Translocation Kit Potency and efficacy of compounds of formula (I) against the target of interest to activate NRF2 (nuclear factor erythroid 2-related factor 2) were determined using the PathHunter NRF2 translocation kit (DiscoverX). The NRF2 translocation assay was run using an engineered recombinant cell line, utilising enzyme fragment complementation to determine activation of the Keap1-NRF2 protein complex and subsequent translocation of NRF2 into the nucleus. Enzyme activity was quantified using a chemiluminescent substrate consumed following the formation of a functional enzyme upon PK-tagged NRF2 translocation into the nucleus. Additionally, a defined concentration of dimethyl fumarate was used as the ‘High’ control to normalise test compound activation responses to. U2OS PathHunter eXpress cells were thawed from frozen prior to plating. Following plating, U2OS cells were incubated for 24 hrs (37° C./5% CO2) in commercial kit provided cell medium. Following 24 hrs of U2OS incubation, cells were directly treated with an appropriate final concentration of compound. Following compound treatment, the U2OS plates were incubated for a further 6 hours (37° C./5% CO2) before detection reagent from the PathHunter NRF2 commercial kit was prepared and added to test plates according to the manufacturer's instructions. Subsequently, the luminescence signal detection in a microplate reader was measured (PHERAstar®, BMG Labtech). Percentage activation was calculated by normalising the sample data to the high and low controls used within each plate (+/−DMF). Percentage activation/response was then plotted against compound concentration and the 50% activation concentration (EC50) was determined from the plotted concentration-response curve.

[6] = THP-1, differentiated THP-1 cells, Table 2, compounds of formula (II)
[7] = +GSH, Table 4, compounds of formula (II)
[8] = −GSH, Table 4, compounds of formula (II)

SMILES	IC50 [1, 6] [µM]	IC50 [2] [µM]	other results
N#C[C@H]1C[C@](OC(=O)/C=C/C(=O)O)(c2ccc(C(F)(F)F)cc2)C1 (single isomer, unassigned) [Intermediate 34, (E)-4-((cis)-3-cyano-1-(4-(trifluoromethyl)phenyl)cyclobutoxy)-4-oxobut-2-enoic acid]	30 to 50	6 to 30	–
O=C(O)/C=C/C(=O)OC(c1ccc(C(F)(F)F)cc1)C(F)(F)F (single isomer, unassigned) [Intermediate 45, (E)-4-oxo-4-(2,2,2-trifluoro-1-(4-(trifluoromethyl)phenyl)ethoxy)but-2-enoic acid]	–	–	CIint [3]: + (+ means >110-277); T½ [3]: 4 min; CIint [4]: ++ (++ means >30-110); T½ [4]: ++ (++ means 5-29)
CC1(OC(=O)/C=C/C(=O)O)CCC1 [Intermediate 4, (E)-4-(1-methylcyclobutoxy)-4-oxobut-2-enoic acid]	–	> 100	EC50 [5, 7]: 23 to 48.4 µM; NRF2 activation Emax [5, 7]: + (+ means >50-<87%); EC50 [5, 8]: < 23 µM; NRF2 activation Emax [5, 8]: +++ (+++ means >114-150%); activity in the THP-1 cytokine assays (in words) ([2]; THP-1 IL-1β and IL-6 assays): not active
CCCCCCCCOC(=O)/C=C/C(=O)O [Intermediate 5, Octyl Fumarate]	–	–	EC50 [5, 7]: < 23 µM; NRF2 activation Emax [5, 7]: ++++ (++++ means >150%); EC50 [5, 8]: < 23 µM; NRF2 activation Emax [5, 8]: ++++ (++++ means >150%)
O=C(O)/C=C/C(=O)OC1(c2ccc(C(F)(F)F)cn2)CCC1 [Intermediate 9, (E)-4-oxo-4-(1-(5-(trifluoromethyl)pyridin-2-yl)cyclobutoxy)but-2-enoic acid]	6 to 30	6 to 30	–
O=C(O)/C=C/C(=O)OC1(c2ccccc2C(F)(F)F)CCC1 [Intermediate 11, (E)-4-oxo-4-(1-(2-(trifluoromethyl)phenyl)cyclobutoxy)but-2-enoic acid]	> 100	50 to 100	–
O=C(O)/C=C/C(=O)OC1(c2ccc(Cl)cc2)CCC1 [Intermediate 13, (E)-4-(1-(4-chlorophenyl)cyclobutoxy)-4-oxobut-2-enoic acid]	6 to 30	6 to 30	–
O=C(O)/C=C/C(=O)OC1(c2ccc(C(F)(F)F)nc2)CCC1 [Intermediate 15, (E)-4-oxo-4-(1-(6-(trifluoromethyl)pyridin-3-yl)cyclobutoxy)but-2-enoic acid]	> 100	30 to 50	–
O=C(O)/C=C/C(=O)OC1(c2ccc(Br)cn2)CCC1 [Intermediate 23, (E)-4-(1-(5-bromopyridin-2-yl)cyclobutoxy)-4-oxobut-2-enoic acid]	–	6 to 30	IC50 ([1]; differentiated THP-1 cells, Table 2, compounds of formula (II)): 6 to 30 µM
O=C(O)/C=C/C(=O)OC1(c2ccc(Cl)cn2)CCC1 [Intermediate 24, (E)-4-(1-(5-chloropyridin-2-yl)cyclobutoxy)-4-oxobut-2-enoic acid]	6 to 30	30 to 50	–
N#Cc1ccc(C2(OC(=O)/C=C/C(=O)O)CCC2)cc1 [Intermediate 27, (E)-4-(1-(4-cyanophenyl)cyclobutoxy)-4-oxobut-2-enoic acid]	6 to 30	50 to 100	–
O=C(O)/C=C/C(=O)OC1(c2cc(F)c(F)c(F)c2)CCC1 [Intermediate 28, (E)-4-oxo-4-(1-(3,4,5-trifluorophenyl)cyclobutoxy)but-2-enoic acid]	6 to 30	6 to 30	–
O=C(O)/C=C/C(=O)OC1(c2ccc(C(F)F)cc2)CCC1 [Intermediate 31, (E)-4-(1-(4-(difluoromethyl)phenyl)cyclobutoxy)-4-oxobut-2-enoic acid]	6 to 30	6 to 30	–
O=C(O)/C=C/C(=O)OC1(c2ccc(C(F)(F)F)cc2)CCOCC1 [Intermediate 35, (E)-4-oxo-4-((4-(4-(trifluoromethyl)phenyl)tetrahydro-2H-pyran-4-yl)oxy)but-2-enoic acid]	> 100	50 to 100	–
O=C(O)/C=C/C(=O)OC1(c2ncc(C(F)(F)F)cn2)CCC1 [Intermediate 39, (E)-4-oxo-4-(1-(5-(trifluoromethyl)pyrimidin-2-yl)cyclobutoxy)but-2-enoic acid]	30 to 50	30 to 50	–
COc1cc(OC)cc(C2(OC(=O)/C=C/C(=O)O)CCC2)c1 [Intermediate 40, (E)-4-(1-(3,5-dimethoxyphenyl)cyclobutoxy)-4-oxobut-2-enoic acid]	30 to 50	> 100	–
COC(=O)/C=C/C(=O)OC [dimethyl fumarate, Dimethyl fumarate, reference compound]	–	–	EC50 ([5]; +GSH, Table 3): > 100 µM; NRF2 activation Emax ([5]; +GSH, normalised to dimethyl fumarate high control, Table 3): 17.1%; EC50 ([5]; −GSH, Table 3): 6.1 µM; NRF2 activation Emax ([5]; −GSH, normalised to dimethyl fumarate high control, Table 3): 100%; IC50 ([1]; THP-1, differentiated THP-1 cells, LPS then Nigericin, Table 1): 9.3 µM
COC(=O)/C=C/C(=O)O [monomethyl fumarate, Monomethyl fumarate, reference compound]	> 100	> 100	EC50 [5, 7]: 48.4 µM; NRF2 activation Emax [5, 7]: 87%; EC50 [5, 8]: 23 µM; NRF2 activation Emax [5, 8]: 114%

Source: patent US20240010606A1, “FUMARATE DERIVATIVES AND THEIR MEDICAL USE” (Sitryx Therapeutics Limited, priority 2020, published 2024)
